Assay results from ChEMBL document CHEMBL4308864, “Targeting tyrosine kinase: Development of acridone - pyrrole - oxindole hybrids against human breast cancer” (2019).

Legend:
Format in all cases: functional
CCRF-CEM = assay: Growth inhibition of human CCRF-CEM cells assessed as cell growth at 10^-5 M incubated for 48 hrs by sulforhodamine B assay relative to control; details: read-out: Activity
HL-60(TB) = assay: Growth inhibition of human HL-60(TB) cells assessed as cell growth at 10^-5 M incubated for 48 hrs by sulforhodamine B assay relative to control; details: HL-60, 48 h, read-out: Activity
MOLT-4 = assay: Growth inhibition of human MOLT4 cells assessed as cell growth at 10^-5 M incubated for 48 hrs by sulforhodamine B assay relative to control; details: MOLT-4, 48 h, read-out: Activity
RPMI-8226 = assay: Growth inhibition of human RPMI8226 cells assessed as cell growth at 10^-5 M incubated for 48 hrs by sulforhodamine B assay relative to control; details: RPMI-8226, 48 h, read-out: Activity
SR = assay: Growth inhibition of human SR cells assessed as cell growth at 10^-5 M incubated for 48 hrs by sulforhodamine B assay relative to control; details: read-out: Activity
EKVX = assay: Growth inhibition of human EKVX cells assessed as cell growth at 10^-5 M incubated for 48 hrs by sulforhodamine B assay relative to control; details: read-out: Activity
HOP-62 = assay: Growth inhibition of human HOP62 cells assessed as cell growth at 10^-5 M incubated for 48 hrs by sulforhodamine B assay relative to control; details: HOP-62, 48 h, read-out: Activity
NCI-H226 = assay: Growth inhibition of human NCI-H226 cells assessed as cell growth at 10^-5 M incubated for 48 hrs by sulforhodamine B assay relative to control; details: NCI-H226, 48 h, read-out: Activity
NCI-H322M = assay: Growth inhibition of human NCI-H322M cells assessed as cell growth at 10^-5 M incubated for 48 hrs by sulforhodamine B assay relative to control; details: read-out: Activity
NCI-H522 = assay: Growth inhibition of human NCI-H522 cells assessed as cell growth at 10^-5 M incubated for 48 hrs by sulforhodamine B assay relative to control; details: NCI-H522, 48 h, read-out: Activity
SF-268 = assay: Growth inhibition of human SF268 cells assessed as cell growth at 10^-5 M incubated for 48 hrs by sulforhodamine B assay relative to control; details: SF-268, 48 h, read-out: Activity
SF-539 = assay: Growth inhibition of human SF539 cells assessed as cell growth at 10^-5 M incubated for 48 hrs by sulforhodamine B assay relative to control; details: SF-539, 48 h, read-out: Activity
U-251 = assay: Growth inhibition of human U251 cells assessed as cell growth at 10^-5 M incubated for 48 hrs by sulforhodamine B assay relative to control; details: U-251, 48 h, read-out: Activity
Malme-3M = assay: Growth inhibition of human MALME-3M cells assessed as cell growth at 10^-5 M incubated for 48 hrs by sulforhodamine B assay relative to control; details: read-out: Activity
MDA-MB-435 = assay: Growth inhibition of human MDA-MB-435 cells assessed as cell growth at 10^-5 M incubated for 48 hrs by sulforhodamine B assay relative to control; details: MDA-MB-435, 48 h, read-out: Activity
SK-MEL-2 = assay: Growth inhibition of human SK-MEL-2 cells assessed as cell growth at 10^-5 M incubated for 48 hrs by sulforhodamine B assay relative to control; details: SK-MEL-2, 48 h, read-out: Activity
SK-MEL-5 = assay: Growth inhibition of human SK-MEL-5 cells assessed as cell growth at 10^-5 M incubated for 48 hrs by sulforhodamine B assay relative to control; details: SK-MEL-5, 48 h, read-out: Activity
UACC-62 = assay: Growth inhibition of human UACC62 cells assessed as cell growth at 10^-5 M incubated for 48 hrs by sulforhodamine B assay relative to control; details: UACC-62, 48 h, read-out: Activity
IGROV-1 = assay: Growth inhibition of human IGROV1 cells assessed as cell growth at 10^-5 M incubated for 48 hrs by sulforhodamine B assay relative to control; details: IGROV-1, 48 h, read-out: Activity
OVCAR-3 = assay: Growth inhibition of human OVCAR3 cells assessed as cell growth at 10^-5 M incubated for 48 hrs by sulforhodamine B assay relative to control; details: OVCAR-3, 48 h, read-out: Activity
OVCAR-8 = assay: Growth inhibition of human OVCAR8 cells assessed as cell growth at 10^-5 M incubated for 48 hrs by sulforhodamine B assay relative to control; details: OVCAR-8, 48 h, read-out: Activity
786-0 = assay: Growth inhibition of human 786-0 cells assessed as cell growth at 10^-5 M incubated for 48 hrs by sulforhodamine B assay relative to control; details: 786-0, 48 h, read-out: Activity
A498 = assay: Growth inhibition of human A498 cells assessed as cell growth at 10^-5 M incubated for 48 hrs by sulforhodamine B assay relative to control; details: A498, 48 h, read-out: Activity
RXF 393 = assay: Growth inhibition of human RXF393 cells assessed as cell growth at 10^-5 M incubated for 48 hrs by sulforhodamine B assay relative to control; details: RXF 393, 48 h, read-out: Activity
PC-3 = assay: Growth inhibition of human PC3 cells assessed as cell growth at 10^-5 M incubated for 48 hrs by sulforhodamine B assay relative to control; details: PC-3, 48 h, read-out: Activity
DU-145 = assay: Growth inhibition of human DU145 cells assessed as cell growth at 10^-5 M incubated for 48 hrs by sulforhodamine B assay relative to control; details: DU-145, 48 h, read-out: Activity
Hs-578T = assay: Growth inhibition of human Hs578T cells assessed as cell growth at 10^-5 M incubated for 48 hrs by sulforhodamine B assay relative to control; details: read-out: Activity
T47D = assay: Growth inhibition of human T47D cells at 10^-5 M incubated for 48 hrs by sulforhodamine B assay relative to control; details: read-out: GI

SMILES | growth at 10 µM (CCRF-CEM) [%] | growth at 10 µM (HL-60(TB)) [%] | growth at 10 µM (MOLT-4) [%] | growth at 10 µM (RPMI-8226) [%] | growth at 10 µM (SR) [%] | growth at 10 µM (EKVX) [%] | growth at 10 µM (HOP-62) [%] | growth at 10 µM (NCI-H226) [%] | growth at 10 µM (NCI-H322M) [%] | growth at 10 µM (NCI-H522) [%] | growth at 10 µM (SF-268) [%] | growth at 10 µM (SF-539) [%] | growth at 10 µM (U-251) [%] | growth at 10 µM (Malme-3M) [%] | growth at 10 µM (MDA-MB-435) [%] | growth at 10 µM (SK-MEL-2) [%] | growth at 10 µM (SK-MEL-5) [%] | growth at 10 µM (UACC-62) [%] | growth at 10 µM (IGROV-1) [%] | growth at 10 µM (OVCAR-3) [%] | other results
O=C1NC(=O)C(=Cc2cccn2CCCn2c3ccccc3c(=O)c3ccccc32)C(=O)N1 | 92.7 | 94 | 93.7 | 88 | 91.8 | 98 | 98.1 | 96.3 | 98.5 | 88.6 | 99.7 | 102 | 92.5 | 114 | 104 | 109 | 95.2 | 87.1 | 101 | 112 | growth at 10 µM (OVCAR-8): 101%; growth at 10 µM (786-0): 96.3%; growth at 10 µM (A498): 98.5%; growth at 10 µM (RXF 393): 95.9%; growth at 10 µM (PC-3): 98.9%; growth at 10 µM (DU-145): 108%; growth at 10 µM (Hs-578T): 115%; inhibition of growth at 10 µM (T47D): 15%
O=C1NC(=O)C(=Cc2cccn2CCCCCn2c3ccccc3c(=O)c3ccccc32)C(=O)N1 | 100 | 92.2 | 93.3 | 92 | 86.8 | 105 | 102 | 99.2 | 98.3 | 90.5 | 102 | 102 | 96.8 | 119 | 97.7 | 107 | 98.7 | 90.8 | 99.4 | 105 | growth at 10 µM (OVCAR-8): 102%; growth at 10 µM (786-0): 99%; growth at 10 µM (A498): 104%; growth at 10 µM (RXF 393): 110%; growth at 10 µM (PC-3): 91%; growth at 10 µM (DU-145): 113%; growth at 10 µM (Hs-578T): 106%; inhibition of growth at 10 µM (T47D): 13%
O=C1NC(=O)C(=Cc2cccn2CCCCn2c3ccccc3c(=O)c3ccccc32)C(=O)N1 | 64.1 | 60.1 | 70.4 | 49.4 | 51.6 | 100 | 79.1 | 88.7 | 97.3 | 70.5 | 85.7 | 85.4 | 76 | 95.6 | 79.9 | 92.9 | 73.8 | 66.1 | 72.1 | 96.6 | growth at 10 µM (OVCAR-8): 86.4%; growth at 10 µM (786-0): 86.6%; growth at 10 µM (A498): 88.1%; growth at 10 µM (RXF 393): 81.4%; growth at 10 µM (PC-3): 86.3%; growth at 10 µM (DU-145): 92.2%; growth at 10 µM (Hs-578T): 85.1%; inhibition of growth at 10 µM (T47D): 43%
